This data set relates to human maximum recommended daily dose, FDA database. Briefly: DSSTox (FDAMDD) FDA Maximum (Recommended) Daily Dose Database. The settings on record: stronger effect = lower value. The gist of the method: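 MRDD values come from clinical trials with daily oral dosing, usually for 3–12 months, for the average adult, in mg/day converted to mg/kg-bw/day assuming 60 kg. Antineoplastic mg/m2 doses are divided by 37. Activity score maps log10(1/MRDD mmol) onto 1–100.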

The mark [1] stands for this setting: TherapeuticCategory: antibacterial.
Where [2] appears, read: TherapeuticCategory: anticonvulsant.
Where [3] appears, read: TherapeuticCategory: cardiotonic.
The mark [4] stands for this setting: TherapeuticCategory: antihypertensive.
Setting [5] is: TherapeuticCategory: antitussive.
[6] abbreviates: TherapeuticCategory: sedative, hypnotic.
Setting [7] is: TherapeuticCategory: anthelmintic.
Setting [8] is: TherapeuticCategory: bronchodilator.
The mark [9] stands for this setting: TherapeuticCategory: antiulcerative.

This passage reports maximum recommended daily dose (mmol/kg-bw/day) results from PubChem BioAssay AID1195 (EPA DSSTox, 2008).

“And” between values parts separate entries of the source, which are not always exact repeats. Identical values can stand only once.

As to `CN1CCC(CN2c3ccccc3Sc3ccccc32)C1` (configuration not stated), the maximum recommended daily dose (mmol/kg-bw/day) (TherapeuticCategory: antipruritic) is 0.00169.
As to `CNCCCN1c2ccccc2CCc2ccccc21`, the maximum recommended daily dose (mmol/kg-bw/day) (TherapeuticCategory: antidepressant) was 0.0188.
Consider `CN(Cc1cc(Br)cc(Br)c1N)C1CCCCC1`, for which, where the note is “TherapeuticCategory: expectorant, mucolytic”, the maximum recommended daily dose (mmol/kg-bw/day) is 0.00213.
For the molecule `C[C@@H]1CN(c2c(F)c(N)c3c(=O)c(C(=O)O)cn(C4CC4)c3c2F)C[C@H](C)N1`, the maximum recommended daily dose (mmol/kg-bw/day) under setting [1] was 0.017.
In the case of `Oc1cc(O)c2c(c1)O[C@H](c1ccc(O)c(O)c1)[C@@H](O)C2`, the maximum recommended daily dose (mmol/kg-bw/day) (TherapeuticCategory: hepatoprotectant, antidiarrheal) is 0.115.
`COc1cc(Cc2cnc(N)nc2N)cc(OC)c1OC`: the maximum recommended daily dose (mmol/kg-bw/day) under setting [1] was 0.0184.
`O=C1CN=C(c2ccccc2Cl)c2cc([N+](=O)[O-])ccc2N1`: under setting [2], the maximum recommended daily dose (mmol/kg-bw/day) is 0.000421.
As for `CC1CCCC(C)N1NC(=O)c1ccc(Cl)c(S(N)(=O)=O)c1` (configuration not stated), for the setting “TherapeuticCategory: antihypertensive, diuretic”, the maximum recommended daily dose (mmol/kg-bw/day) was 0.00289.
Turning to `CCOC(=O)c1c(N)sc2c1CCN(Cc1ccccc1)C2`, the maximum recommended daily dose (mmol/kg-bw/day) (TherapeuticCategory: analgesic, antipyretic, anti inflammatory) was 0.0158.
For the molecule `COC(=O)c1ccc(O)cc1`, for the setting “TherapeuticCategory: none”, the maximum recommended daily dose (mmol/kg-bw/day) was 0.0657.
The same measure, in the same setting: as for `CCC(C)CON=O` (configuration not stated), the figure is 0.0427.
In the case of `CO[C@H]1C[C@@H]2CC[C@@H](C)[C@@](O)(O2)C(=O)C(=O)N2CCCC[C@H]2C(=O)O[C@H]([C@H](C)C[C@@H]2CC[C@@H](O)[C@H](OC)C2)CC(=O)[C@H](C)/C=C(\C)[C@@H](O)[C@@H](OC)C(=O)[C@H](C)C[C@H](C)/C=C/C=C/C=C/1C`, the maximum recommended daily dose (mmol/kg-bw/day) (TherapeuticCategory: immunosuppressant) is 0.000148.
With `CCN(CCO)CCCC(C)Nc1ccnc2cc(Cl)ccc12` (configuration not stated), the maximum recommended daily dose (mmol/kg-bw/day) (TherapeuticCategory: antimalarial, antirheumatic, lupus erythematosus suppressant) was 0.0298.
In the case of `NC(Cc1cc(I)c(Oc2cc(I)c(O)c(I)c2)c(I)c1)C(=O)O` (configuration not stated), the maximum recommended daily dose (mmol/kg-bw/day) (TherapeuticCategory: thyroid hormone, antihyperlipoproteinemic) was 6.44e-06.
As to `C[C@@H]1C[C@@]2(C)[C@@H](CC[C@@H]3[C@@H]2CC[C@]2(C)[C@@H](O)CC[C@@H]32)CC1=O`, the maximum recommended daily dose (mmol/kg-bw/day) (TherapeuticCategory: antineoplastic) is 0.00549.
Turning to `O=C1Nc2ccc(Cl)cc2C(c2ccccc2)=NC1O` (configuration not stated), under “TherapeuticCategory: anxiolytic”, the maximum recommended daily dose (mmol/kg-bw/day) was 0.00698.
`N[C@@H](C(=O)N[C@@H]1C(=O)N2C(C(=O)O)=C(Cl)CS[C@H]12)c1ccccc1`: the maximum recommended daily dose (mmol/kg-bw/day) under setting [1] is 0.068.
For the molecule `CN1C(=O)CN=C(c2ccccc2F)c2cc([N+](=O)[O-])ccc21`, the maximum recommended daily dose (mmol/kg-bw/day) (TherapeuticCategory: hypnotic) was 0.000106.
For `CC(=O)O[C@H]1C[C@H](O[C@H]2[C@@H](O)C[C@H](O[C@H]3[C@@H](O)C[C@H](O[C@H]4CC[C@@]5(C)[C@H](CC[C@@H]6[C@@H]5C[C@@H](O)[C@]5(C)[C@@H](C7=CC(=O)OC7)CC[C@]65O)C4)O[C@@H]3C)O[C@@H]2C)O[C@H](C)[C@H]1O[C@@H]1O[C@H](CO)[C@@H](O)[C@H](O)[C@H]1O`, the maximum recommended daily dose (mmol/kg-bw/day) under setting [3] is 3.38e-05.
Regarding `COCC1=C(C(=O)OC(C)OC(=O)OC(C)C)N2C(=O)[C@@H](NC(=O)/C(=N\OC)c3csc(N)n3)[C@H]2SC1` (some centres not stated), the maximum recommended daily dose (mmol/kg-bw/day) under setting [1] was 0.0179.
For `CC(CC(C)(C)O)OC(O)C(Cl)(Cl)Cl` (configuration not stated), the maximum recommended daily dose (mmol/kg-bw/day) (TherapeuticCategory: hypnotic) was 0.101.
For `CC(C)(C)NC(=O)[C@H]1CC[C@H]2[C@@H]3CC[C@H]4NC(=O)C=C[C@]4(C)[C@H]3CC[C@]12C`, the maximum recommended daily dose (mmol/kg-bw/day) (TherapeuticCategory: prostatic hypertrophy treatment) was 0.000224.
`COC(=O)[C@H]1[C@H]2C[C@@H]3c4[nH]c5ccccc5c4CCN3C[C@H]2C[C@@H](OC(=O)c2cc(OC)c(OC)c(OC)c2)[C@@H]1OC`: under setting [4], the maximum recommended daily dose (mmol/kg-bw/day) was 2.89e-05.
Take `CCCN1C[C@H](CSC)C[C@@H]2c3cccc4[nH]cc(c34)C[C@H]21`: the maximum recommended daily dose (mmol/kg-bw/day) (TherapeuticCategory: antiparkinsonian, dopamine receptor agonist) was 0.000159.
`OC[C@@H](O)CN1CCN(c2ccccc2)CC1`: under setting [5], the maximum recommended daily dose (mmol/kg-bw/day) is 0.0127.
Regarding `CC(C)(CO)[C@@H](O)C(=O)NCCC(=O)O`, the maximum recommended daily dose (mmol/kg-bw/day) (TherapeuticCategory: vitamin) was 0.000534.
Take `Cn1c(=O)c2c(ncn2C)n(C)c1=O`: the maximum recommended daily dose (mmol/kg-bw/day) (TherapeuticCategory: CNS stimulant) is 0.0515.
For the molecule `Cc1ccc(S(=O)(=O)NC(=O)NN2CCCCCC2)cc1`, the maximum recommended daily dose (mmol/kg-bw/day) (TherapeuticCategory: antidiabetic) was 0.0536.
Take `CN1CCCC(=C(c2cccs2)c2cccs2)C1`: the maximum recommended daily dose (mmol/kg-bw/day) under setting [5] was 0.0182.
As for `CC(=O)O[C@H]1C[C@H](O[C@H]2[C@@H](O)C[C@H](O[C@H]3[C@@H](O)C[C@H](OC4CC[C@@]5(C)C(CC[C@@H]6[C@@H]5C[C@@H](O)[C@]5(C)[C@@H](C7=CC(=O)OC7)[C@@H](O)C[C@]65O)C4)O[C@@H]3C)O[C@@H]2C)O[C@H](C)[C@H]1O[C@@H]1O[C@H](CO)[C@@H](O)[C@H](O)[C@H]1O` (some centres not stated), under setting [3], the maximum recommended daily dose (mmol/kg-bw/day) was 3.33e-05.
Turning to `O=C1C(O)N=C(c2ccccc2F)c2cc(Cl)ccc2N1CCO` (configuration not stated), the maximum recommended daily dose (mmol/kg-bw/day) under setting [6] is 0.000955.
On to `NCCCNCCSP(=O)(O)O`, for which the maximum recommended daily dose (mmol/kg-bw/day) (TherapeuticCategory: mucolytic) was 0.115.
On to `Cc1ccsc1C(=CCCN1CCC[C@@H](C(=O)O)C1)c1sccc1C`, for which, under setting [2], the maximum recommended daily dose (mmol/kg-bw/day) is 0.00285.
Turning to `COc1cc(N)c(Cl)cc1C(=O)NC1CCN(Cc2ccccc2)CC1`, the maximum recommended daily dose (mmol/kg-bw/day) (TherapeuticCategory: antiemetic, antispasmodic) is 6.69e-05.
With `O=C(OC1C(OC(=O)c2cccnc2)C(OC(=O)c2cccnc2)C(OC(=O)c2cccnc2)C(OC(=O)c2cccnc2)C1OC(=O)c1cccnc1)c1cccnc1` (configuration not stated), under “TherapeuticCategory: vasodilator”, the maximum recommended daily dose (mmol/kg-bw/day) was 0.0823.
Take `C[C@]12CC[C@@H]3c4ccc(O)cc4CC[C@H]3[C@@H]1CC[C@@H]2OC(=O)CCC1CCCC1`: for the setting “TherapeuticCategory: estrogen”, the maximum recommended daily dose (mmol/kg-bw/day) was 0.00126.
Take `NCCCCCC(=O)O`: the maximum recommended daily dose (mmol/kg-bw/day) (TherapeuticCategory: hemostatic) was 1.52.
As for `O=C(O)c1ccccc1Nc1cccc(C(F)(F)F)c1`, the maximum recommended daily dose (mmol/kg-bw/day) (TherapeuticCategory: analgesic, anti inflammatory) was 0.0356.
For the molecule `CC(C)NCC(O)COc1ccc(COCCOC(C)C)cc1` (configuration not stated), the maximum recommended daily dose (mmol/kg-bw/day) under setting [4] is 0.00102.
On to `CO[C@H]1C[C@H](O[C@H]2[C@H](C)O[C@@H](O[C@@H]3/C(C)=C/C[C@@H]4C[C@@H](C[C@]5(CC[C@H](C)[C@@H](C(C)C)O5)O4)OC(=O)[C@@H]4C=C(C)[C@@H](O)[C@H]5OC/C(=C\C=C\[C@@H]3C)[C@]54O)C[C@@H]2OC)O[C@@H](C)[C@@H]1O`, for which the maximum recommended daily dose (mmol/kg-bw/day) under setting [7] is 0.000174.
Turning to `C=CCC1(CC=C)C(=O)NC(=O)NC1=O`, the maximum recommended daily dose (mmol/kg-bw/day) under setting [6] is 0.016.
For the molecule `CNC(C)Cc1ccccc1OC` (configuration not stated), the maximum recommended daily dose (mmol/kg-bw/day) under setting [8] is 0.0558.
For `CNC(C)(C)Cc1ccccc1`, the maximum recommended daily dose (mmol/kg-bw/day) (TherapeuticCategory: adrenergic) was 0.00613.
In the case of `CC(=O)O[C@H]1C[C@H](O[C@H]2[C@@H](O)C[C@H](O[C@H]3[C@@H](O)C[C@H](OC4CC[C@@]5(C)C(CC[C@@H]6[C@@H]5CC[C@]5(C)[C@@H](C7=CC(=O)OC7)[C@@H](O)C[C@]65O)C4)O[C@@H]3C)O[C@@H]2C)O[C@H](C)[C@H]1O[C@@H]1O[C@H](CO)[C@@H](O)[C@H](O)[C@H]1O` (some centres not stated), the maximum recommended daily dose (mmol/kg-bw/day) under setting [3] is 3.38e-05.
Consider `OC1(c2ccc(Cl)cc2)c2ccccc2C2=NCCN21` (configuration not stated), for which the maximum recommended daily dose (mmol/kg-bw/day) (TherapeuticCategory: anorexic) is 0.000117.
For the molecule `CN[C@@H](C)[C@H](O)c1ccccc1`, under setting [8], the maximum recommended daily dose (mmol/kg-bw/day) was 0.0101.
For `COc1ccc(OC)c(C(O)CNC(=O)CN)c1` (configuration not stated), the maximum recommended daily dose (mmol/kg-bw/day) (TherapeuticCategory: adrenergic, antihypotensive) was 0.000983.
Turning to `CN(C)CCc1c[nH]c2ccc(Cn3cncn3)cc12`, the maximum recommended daily dose (mmol/kg-bw/day) (TherapeuticCategory: antimigraine) is 0.00186.
Turning to `COc1ccc2nc(S(=O)Cc3ncc(C)c(OC)c3C)[nH]c2c1` (configuration not stated), the maximum recommended daily dose (mmol/kg-bw/day) under setting [9] is 0.00579.
Turning to `CN(C)CCOC(C)(c1ccccc1)c1ccccn1` (configuration not stated), the maximum recommended daily dose (mmol/kg-bw/day) (TherapeuticCategory: antihistaminic, hypnotic) was 0.00154.
Take `CN(Cc1cnc2nc(N)nc(N)c2n1)c1ccc(C(=O)N[C@@H](CCC(=O)O)C(=O)O)cc1`: the maximum recommended daily dose (mmol/kg-bw/day) (TherapeuticCategory: antineoplastic, antirheumatic) was 0.0011.
On to `C[N+](C)(CCOc1ccccc1)Cc1ccccc1`, for which the maximum recommended daily dose (mmol/kg-bw/day) under setting [7] was 0.163 and 0.094.
As for `CN(C)CC/C=C1\c2ccccc2COc2ccc(CC(=O)O)cc21`, the maximum recommended daily dose (mmol/kg-bw/day) (TherapeuticCategory: antihistaminic, antiallergic) is 0.000987.
Consider `N[C@@H](CS)C(=O)O`, for which the maximum recommended daily dose (mmol/kg-bw/day) (TherapeuticCategory: none) was 0.825.
As to `CCCCC(C)(O)C/C=C/[C@H]1[C@H](O)CC(=O)[C@@H]1CCCCCCC(=O)OC` (some centres not stated), under setting [9], the maximum recommended daily dose (mmol/kg-bw/day) is 3.48e-05.
For the molecule `CCCC(=O)c1ccc2c(c1)N(CCCN1CCN(C)CC1)c1ccccc1S2`, the maximum recommended daily dose (mmol/kg-bw/day) (TherapeuticCategory: antipsychotic) is 0.00408.
Regarding `CCc1nc(N)nc(N)c1-c1ccc(Cl)cc1`, the maximum recommended daily dose (mmol/kg-bw/day) (TherapeuticCategory: antimalarial) was 0.00503.
For `CC(C)(C)c1ccc(C(O)CCCN2CCC(C(O)(c3ccccc3)c3ccccc3)CC2)cc1` (configuration not stated), the maximum recommended daily dose (mmol/kg-bw/day) (TherapeuticCategory: antihistaminic) was 0.00424.
As for `CCC1(c2ccccc2)CCC(=O)NC1=O` (configuration not stated), the maximum recommended daily dose (mmol/kg-bw/day) under setting [6] was 0.0383.
Turning to `C[C@H]1C[C@@H]2[C@H]([C@@H](O)C[C@@]3(C)[C@H]2CC[C@]3(O)C(=O)CO)[C@@]2(C)C=CC(=O)C=C12`, under “TherapeuticCategory: glucocorticoid”, the maximum recommended daily dose (mmol/kg-bw/day) was 0.0111.
Consider `CCOC(=O)[C@H](CCc1ccccc1)N[C@@H](C)C(=O)N1CCC[C@H]1C(=O)O`, for which the maximum recommended daily dose (mmol/kg-bw/day) under setting [4] was 0.00177.
On to `C#CCN(C)[C@H](C)Cc1ccccc1`, for which the maximum recommended daily dose (mmol/kg-bw/day) (TherapeuticCategory: antiparkinsonian) was 0.000892.
